Here are results for 15 compounds from PubChem BioAssay AID284 (DTP/NCI, 2004).

Several values for one entry are separate records, joined by “and”; a condition that tells them apart may be missing. Identical values can stand only once. Toxic doses and inconclusive results are not listed.

The test relates to BDF1 mice, L1210/MTX-resistant leukemia ip, survival T/C. The test can be described thus: NCI In Vivo Anticancer Drug Screen. Data for tumor model L1210 Leukemia resistant to Methotrexate; NSC 740 (intraperitoneal) in B6D2F1 (BDF1) mice. The following applies: endpoint: mean survival time, higher = longer survival. The protocol: The antitumor activity of compounds was measured in mice bearing transplantable tumors. Survival or tumor size were measured and the results are expressed as the measurement made in the treated group (T) divided by the measurement made in the vehicle treated control group (C). The tumor model used in this assay is L1210 Leukemia resistant to Methotrexate; NSC 740 (intraperitoneal) in B6D2F1 (BDF1) mice

[1] abbreviates: dose: 1.5 mg/kg/injection, schedule: Q01DX010 (ip), vehicle: saline.
Setting [2] is: dose: 3.0 mg/kg/injection, schedule: Q01DX010 (ip), vehicle: saline.
[3] abbreviates: dose: 6.0 mg/kg/injection, schedule: Q01DX010 (ip), vehicle: saline.
Where [4] appears, read: dose: 50.0 mg/kg/injection, schedule: Q01DX Z (ip), vehicle: saline.

Consider `CC(=O)O[C@]1(C(C)=O)CC[C@H]2[C@@H]3C[C@H](C)C4=CC(=O)C=C[C@]4(C)[C@@]3(F)[C@@H](O)C[C@@]21C`, for which the T/C was 96 % of control (dose: 0.62 mg/kg/injection, schedule: Q01DX Z (sc), vehicle: steriod suspending solution); 97 % of control (dose: 1.25 mg/kg/injection, schedule: Q01DX Z (sc), vehicle: steriod suspending solution); 100 % of control (dose: 2.5 mg/kg/injection, schedule: Q01DX Z (sc), vehicle: steriod suspending solution); 101 % of control (dose: 5.0 mg/kg/injection, schedule: Q01DX Z (sc), vehicle: steriod suspending solution); 101 % of control (dose: 12.5 mg/kg/injection, schedule: Q01DX010 (sc), vehicle: steriod suspending solution); 100 % of control (dose: 25.0 mg/kg/injection, schedule: Q01DX010 (sc), vehicle: steriod suspending solution). The T/C (dose: 37.5 mg/kg/injection, schedule: Q01DX Z (sc), vehicle: steriod suspending solution) was 150 % of control; the T/C (dose: 50.0 mg/kg/injection, schedule: Q01DX010 (sc), vehicle: steriod suspending solution) was 88 % of control; the T/C (dose: 100.0 mg/kg/injection, schedule: Q01DX010 (sc), vehicle: steriod suspending solution) was 88 % of control.

As to `CC(=O)N(C)C`, the T/C was 90 % of control and 98 % of control (dose: 62.5 mg/kg/injection, schedule: Q01DX010 (ip), vehicle: saline); 106 % of control (dose: 62.5 mg/kg/injection, schedule: Q01DX Z (ip), vehicle: saline); 102 % of control (dose: 125.0 mg/kg/injection, schedule: Q01DX010 (ip), vehicle: saline); 122 % of control (dose: 125.0 mg/kg/injection, schedule: Q01DX Z (ip), vehicle: saline); 93 % of control and 100 % of control (dose: 250.0 mg/kg/injection, schedule: Q01DX010 (ip), vehicle: saline); 93 % of control (dose: 500.0 mg/kg/injection, schedule: Q01DX010 (ip), vehicle: saline). The T/C (dose: 500.0 mg/kg/injection, schedule: Q01DX Z (ip), vehicle: saline) was 114 % of control and 88 % of control; the T/C (dose: 750.0 mg/kg/injection, schedule: Q01DX Z (ip), vehicle: saline) was 88 % of control; the T/C (dose: 1000.0 mg/kg/injection, schedule: Q01DX Z (ip), vehicle: methylcellulose (MC)) is 87 % of control.

As to `Nc1nc(=S)c2ncn(C3OC(CO)C(O)C3O)c2[nH]1` (configuration not stated), the T/C is, setting by setting: (dose: 0.22 mg/kg/injection, schedule: Q01DX Z (ip), vehicle: carboxymethylcellulose (CMC)) 88 % of control; (dose: 0.45 mg/kg/injection, schedule: Q01DX Z (ip), vehicle: carboxymethylcellulose (CMC)) 88 % of control; (dose: 1.8 mg/kg/injection, schedule: Q01DX Z (ip), vehicle: carboxymethylcellulose (CMC)) 102 % of control.

With `C[C@@H]1C[C@H]2CC[C@H](O2)[C@H](C)C(=O)O[C@@H](C)C[C@@H]2CC[C@@H](O2)[C@@H](C)C(=O)O[C@H](C)C[C@H]2CC[C@H](O2)[C@H](C)C(=O)O[C@@H](C)C[C@@H]2CC[C@@H](O2)[C@@H](C)C(=O)O1`, for the setting “dose: 100.0 mg/kg/injection, schedule: Q01DX Z (ip), vehicle: methylcellulose (MC)”, the T/C was 89 % of control.

As to `CN(C)c1ccc(/C=C\c2ccnc3ccccc23)cc1`, the T/C under setting [1] is 97 % of control, the T/C under setting [2] was 103 % of control and the T/C under setting [3] is 99 % of control.

`CS(=O)(=O)OCCCl`: the T/C by setting is: (dose: 7.5 mg/kg/injection, schedule: Q01DX Z (ip), vehicle: saline) 107 % of control; (dose: 10.0 mg/kg/injection, schedule: Q01DX Z (ip), vehicle: saline) 111 % of control; (dose: 15.0 mg/kg/injection, schedule: Q01DX Z (ip), vehicle: saline) 109 % of control; (dose: 20.0 mg/kg/injection, schedule: Q01DX Z (ip), vehicle: saline) 111 % of control; under setting [4], 86 % of control.

For `C[C@]12CCC(=O)C=C1CC[C@@H]1[C@@H]2C(=O)C[C@@]2(C)[C@H]1CC[C@]2(O)C(=O)CO`, the T/C (dose: 63.0 mg/kg/injection, schedule: Q01DX Z (sc), vehicle: steriod suspending solution) was 101 % of control and 106 % of control; the T/C (dose: 100.0 mg/kg/injection, schedule: Q01DX Z (sc), vehicle: steriod suspending solution) was 89 % of control; the T/C (dose: 125.0 mg/kg/injection, schedule: Q01DX Z (sc), vehicle: steriod suspending solution) is 98 % of control and 102 % of control.

In the case of `CC(=O)Nc1ccc2nc3ccc(NC(C)=O)cc3[n+](-c3ccccc3)c2c1`, the T/C (dose: 2.0 mg/kg/injection, schedule: Q01DX Z (ip), vehicle: carboxymethylcellulose (CMC)) was 107 % of control; the T/C (dose: 3.0 mg/kg/injection, schedule: Q01DX Z (ip), vehicle: carboxymethylcellulose (CMC)) is 88 % of control; the T/C (dose: 6.0 mg/kg/injection, schedule: Q01DX Z (ip), vehicle: carboxymethylcellulose (CMC)) is 100 % of control.

As to `O=c1[nH]c(=O)n(C2CC(O)C(CO)O2)cc1F` (configuration not stated), the T/C reads like this: (dose: 40.0 mg/kg/injection, schedule: Q01DX Z (ip), vehicle: other) 118 % of control; (dose: 80.0 mg/kg/injection, schedule: Q01DX Z (ip), vehicle: other) 98 % of control; (dose: 160.0 mg/kg/injection, schedule: Q01DX Z (ip), vehicle: other) 102 % of control.

Take `Cc1c(O)ccc(=O)n1O`: the T/C was 98 % of control (dose: 49.0 mg/kg/injection, schedule: Q01DX Z (ip), vehicle: other); 86 % of control (dose: 73.0 mg/kg/injection, schedule: Q01DX Z (ip), vehicle: other); 114 % of control (dose: 110.0 mg/kg/injection, schedule: Q01DX Z (ip), vehicle: other); 110 % of control (dose: 165.0 mg/kg/injection, schedule: Q01DX Z (ip), vehicle: other); 96 % of control (dose: 247.0 mg/kg/injection, schedule: Q01DX Z (ip), vehicle: other).

As to `S=P(N1CCCC1)(N1CC1)N1CC1`, the T/C was 93 % of control (dose: 0.03 mg/kg/injection, schedule: Q01DX Z (ip), vehicle: methylcellulose (MC)); 91 % of control (dose: 0.05 mg/kg/injection, schedule: Q01DX Z (ip), vehicle: methylcellulose (MC)); 99 % of control (dose: 0.1 mg/kg/injection, schedule: Q01DX Z (ip), vehicle: methylcellulose (MC)).

For the compound `O=NN(CCCl)C(=O)NCCCl`, the T/C is 113 % of control (dose: 12.5 mg/kg/injection, schedule: Q01DX010 (ip), vehicle: saline); 87 % of control and 91 % of control (dose: 25.0 mg/kg/injection, schedule: Q01DX010 (ip), vehicle: saline).

On to `N=C(N)c1ccc(Nc2ccc(C(=N)N)cc2)cc1`, for which the T/C was 101 % of control under setting [1]; 97 % of control under setting [2]; 102 % of control under setting [3]; 98 % of control (dose: 7.5 mg/kg/injection, schedule: Q01DX Z (ip), vehicle: water); 91 % of control (dose: 12.0 mg/kg/injection, schedule: Q01DX010 (ip), vehicle: saline); 86 % of control (dose: 12.5 mg/kg/injection, schedule: Q01DX Z (ip), vehicle: water).

As to `CCCCn1cnc2c(=S)nc[nH]c21`, the T/C is 114 % of control (dose: 16.0 mg/kg/injection, schedule: Q01DX010 (ip), vehicle: saline); 97 % of control (dose: 32.0 mg/kg/injection, schedule: Q01DX010 (ip), vehicle: saline); 105 % of control (dose: 64.0 mg/kg/injection, schedule: Q01DX010 (ip), vehicle: saline).

As to `CN(N=O)C(N)=O`, the T/C was 122 % of control (dose: 5.0 mg/kg/injection, schedule: Q01DX010 (ip), vehicle: saline); 105 % of control (dose: 12.5 mg/kg/injection, schedule: Q01DX Z (ip), vehicle: saline); 101 % of control (dose: 25.0 mg/kg/injection, schedule: Q01DX Z (ip), vehicle: saline); 103 % of control under setting [4].
